One assay has as its target T1, renin in human plasma (Homo sapiens, UniProt P00797).
T1 construct: host or cells: recombinant enzyme added to human plasma from 10 normal donors
T1 sequence (P00797 67-406): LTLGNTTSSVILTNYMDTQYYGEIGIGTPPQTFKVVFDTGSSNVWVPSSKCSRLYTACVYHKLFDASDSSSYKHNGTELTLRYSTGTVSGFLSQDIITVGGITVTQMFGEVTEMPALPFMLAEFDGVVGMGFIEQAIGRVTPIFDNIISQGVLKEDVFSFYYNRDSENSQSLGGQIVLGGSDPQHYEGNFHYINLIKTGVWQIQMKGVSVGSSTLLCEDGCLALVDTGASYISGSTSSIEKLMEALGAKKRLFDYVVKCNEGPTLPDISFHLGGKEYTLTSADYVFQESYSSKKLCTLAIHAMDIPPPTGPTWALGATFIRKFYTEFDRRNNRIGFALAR
The experiment in a line: Inhibition of renin in human plasma. The settings on record: human plasma assay. It is filed as biochemical.

The next assay has as its target T2, human recombinant renin (Homo sapiens, UniProt P00797).
T2 sequence (P00797 67-406): T1 sequence (P00797 67-406)
Kind of assay: Renin IC50, QFRET (quenched fluorescence resonance energy transfer) assay. Type of assay: biochemical. As to conditions: FRET (quenched fluorescence resonance energy transfer) assay.

Each structure is given as a SMILES string. pIC50: −log10 of the molar value.

Broadly, the pIC50 is the negative decadic logarithm of the IC50, by convention in mol/L.

On to `COCCCc1cc(CN(C(=O)[C@H]2CNCC[C@]2(O)c2cccnc2)C2CC2)cc(OCCOC)c1` (racemic) [Example 2, rac-(3S,4R)—N-cyclopropyl-4-hydroxy-N-[3-(2-methoxyethoxy)-5-(3-methoxypropyl)benzyl]-4-pyridin-3-ylpiperidine-3-carboxamide], for which the pIC50 at renin in human plasma is 6.55; on human recombinant renin it was 6.85.

Turning to `COCCCc1cc(CN(C(=O)[C@H]2CNCC[C@]2(OCc2ccc(F)cc2)c2ccc(F)c(F)c2)C2CC2)cc(OCCOC)c1` [Example 48, (3S,4R)—N-cyclopropyl-4-(3,4-difluorophenyl)-4-[(4-fluorobenzyl)oxy]-N-[3-(2-methoxyethoxy)-5-(3-methoxypropyl)benzyl]piperidine-3-carboxamide], the negative logarithm of the IC50 (pIC50) against renin in human plasma is 7.21; on human recombinant renin, 8.96.

`COCCCc1cc(CN(C(=O)[C@H]2CNCC[C@]2(O)c2ccn(C)c(=O)c2)C2CC2)cc(OCCOC)c1` (racemic) [Example 23, rac-(3S,4R)—N-cyclopropyl-4-hydroxy-N-[3-(2-methoxyethoxy)-5-(3-methoxypropyl)benzyl]-4-(1-methyl-2-oxo-1,2-dihydropyridin-4-yl)piperidine-3-carboxamide]: the pIC50 at renin in human plasma is 6.87; at human recombinant renin, 7.12.

Take `COCCCc1cc(CN(C(=O)[C@H]2CNCC[C@]2(OCCOC)c2ccc(F)c(F)c2)C2CC2)cc(OCCOC)c1` [Example 49, (3S,4R)—N-cyclopropyl-4-(3,4-difluorophenyl)-4-(2-methoxyethoxy)-N-[3-(2-methoxyethoxy)-5-(3-methoxypropyl)benzyl]piperidine-3-carboxamide]: the pIC50 at renin in human plasma was 7.96; at human recombinant renin, 8.57.

Turning to `COCCCc1cc(CN(C(=O)[C@H]2CNCC[C@]2(OCc2cnn[nH]2)c2ccc(F)c(F)c2)C2CC2)cc(OCCOC)c1` [Example 51, (3S,4R)—N-cyclopropyl-4-(3,4-difluorophenyl)-N-[3-(2-methoxyethoxy)-5-(3-methoxypropyl)benzyl]-4-(1H-1,2,3-triazol-5-ylmethoxy)piperidine-3-carboxamide], the pIC50 against renin in human plasma is 7.68; at human recombinant renin, 8.41.

`COCCCc1cc(CN(C(=O)[C@H]2CNCC[C@]2(OC)c2ccc(F)c(F)c2)C2CC2)cc(OCCOC)c1` (racemic) [Example 35, Rac-(3S,4R)—N-cyclopropyl-4-(3,4-difluorophenyl)-4-methoxy-N-[3-(2-methoxyethoxy)-5-(3-methoxypropyl)benzyl]piperidine-3-carboxamide]: the negative-log IC50 (pIC50) is 8.33 at renin in human plasma and 9.00 at human recombinant renin.

As to `COCCc1ccc(Cl)c(CN(C(=O)[C@H]2CNCC[C@]2(OCC(O)CO)c2ccc(F)c(F)c2)C2CC2)c1` (stereo partly drawn) [Example 54, (3S,4R)—N-[2-chloro-5-(2-methoxyethyl)benzyl]-N-cyclopropyl-4-(3,4-difluorophenyl)-4-(2,3-dihydroxypropoxy)piperidine-3-carboxamide], the negative logarithm of the IC50 (pIC50) was 8.32 on renin in human plasma and 8.62 at human recombinant renin.

These data come from patent US20100249163A1, “RENIN INHIBITORS” (priority 2007, published 2010).
